The text below walks through data of US20100016225A1, “CONJUGATES COMPRISED OF POLYMER AND HIV gp-41-DERIVED PEPTIDES AND THEIR USE IN THERAPY” (Trimeris, Inc., priority 2002, published 2010).

Type in all cases: cell-based
One test relates to HIV-1 strain IIIB. As to the kind of experiment: In vitro infectivity assay, HIV-1 strain IIIB (Table 5). The source says: (§1) Illustrated in this example is the unexpected result of antiviral potency using the conjugates according to the present invention. […] In determining antiviral activity (e.g., one measure being the ability to inhibit transmission of HIV to a target cell) of the conjugates according to the present invention, used was an in vitro assay which has been shown, by data generated using synthetic peptides derived from either of the HR regions of HIV gp41, to be predictive of antiviral activity observed in vivo.
(§2) The infectivity assays score for reduction of infectious virus titer employing the indicator cell lines MAGI or the CCR5 expressing derivative cMAGI. Both cell lines exploit the ability of HIV-1 that to transactivate the expression of a β-galactosidase reporter gene driven by the HIV-LTR. The β-gal reporter has been modified to localize in the nucleus and can be detected with the X-gal substrate as intense nuclear staining within a few days of infection. The number of stained nuclei can thus be interpreted as equal to the number of infectious virions in the challenge inoculum if there is only one round of infection prior to staining. Infected cells are enumerated using a CCD-imager and both primary and laboratory adapted isolates show a linear relationship between virus input and the number of infected cells visualized by the imager. […] Peptides tested for antiviral activity were diluted into various concentrations, and tested in duplicate or triplicate against an HIV inoculum adjusted to yield approximately 1500-2000 infected cells/well of a 48 well microtiter plate. The peptide (in the respective dilution) was added to the CMAGI or MAGI cells, followed by the virus inocula; and 24 hours later, an inhibitor of infection and cell-cell fusion (e.g., T20) was added to prevent secondary rounds of HIV infection and cell-cell virus spread. The cells were cultured for 2 more days, and then fixed and stained with the X-gal substrate to detect HIV-infected cells. The number of infected cells for each control and peptide dilution was determined with the CCD-imager, and then the IC50 and IC90 were calculated (expressed in μg/ml).
(§3) Using the methods taught in Example 1 herein, additional conjugates were produced by varying the polymer, the terminus of the synthetic peptide which is operably bound to polymer, and the reactive functionality used for operably binding synthetic peptide to polymer. Two molecules of synthetic peptide (e.g. SEQ ID NO:4) were operably bound to polymer. Such conjugates were then tested for antiviral activity against HIV isolates IIIB, and HIV-1 T20S & HIV-1 T20R (see Table 2 for HIV resistant strains), with the antiviral activity (IC50) expressed in μg/ml. The results for the various conjugates (Table 5, A-Q), terminus of synthetic peptide used for operably binding polymer (Table 5, C-terminus denoted as “C”, N-terminus denoted as “N”) or if an internal lysine was used (Table 5, “Lys 18”, signifying lysine as amino acid residue 18 in the amino acid sequence of the synthetic peptide), antiviral activity (IC50) against HIV-1 strain IIIB (Table 5, “IIIB”), antiviral activity (IC50) against HIV-1 T20S (Table 5, “T20S”) and antiviral activity (IC50) against HIV-1 T20R (Table 5, “T20R”), are illustrated in Table 5.

The subject of the next test is HIV-1 T20R. The settings on record: HIV-1 T20R, Table 5. The source says:
The infectivity assays score for reduction of infectious virus titer employing the indicator cell lines MAGI or the CCR5 expressing derivative cMAGI. Both cell lines exploit the ability of HIV-1 that to transactivate the expression of a β-galactosidase reporter gene driven by the HIV-LTR. The β-gal reporter has been modified to localize in the nucleus and can be detected with the X-gal substrate as intense nuclear staining within a few days of infection. The number of stained nuclei can thus be interpreted as equal to the number of infectious virions in the challenge inoculum if there is only one round of infection prior to staining. […] The peptide (in the respective dilution) was added to the CMAGI or MAGI cells, followed by the virus inocula; and 24 hours later, an inhibitor of infection and cell-cell fusion (e.g., T20) was added to prevent secondary rounds of HIV infection and cell-cell virus spread. The cells were cultured for 2 more days, and then fixed and stained with the X-gal substrate to detect HIV-infected cells. The number of infected cells for each control and peptide dilution was determined with the CCD-imager, and then the IC50 and IC90 were calculated (expressed in μg/ml).
In this first example of antiviral potency, two clinical isolates of HIV were obtained from the same HIV-infected individual.
Using the methods taught in Example 1 herein, additional conjugates were produced by varying the polymer, the terminus of the synthetic peptide which is operably bound to polymer, and the reactive functionality used for operably binding synthetic peptide to polymer. Two molecules of synthetic peptide (e.g. SEQ ID NO:4) were operably bound to polymer.

In a further test the test system is HIV-1 T20S. The settings on record: HIV-1 T20S, Table 5.
From the text: as §1, §2
In this first example of antiviral potency, two clinical isolates of HIV were obtained from the same HIV-infected individual. A first isolate, hereby designated “HIV-1 T20S” for ease of description, was sensitive to the antiviral effect of T20 (SEQ ID NO:4) both in vitro and in vivo. […] The results, with the IC50 expressed in ng/ml, are illustrated in Table 2.
as §3

“Conjugate A: two molecules of SEQ ID NO:4 bound via N-terminus to PEG 6”: the “IIIB (antiviral activity, IC50)” value with HIV-1 strain IIIB was “.037 µg/mL”. Moreover, the “T20R (antiviral activity, IC50)” value in the test on HIV-1 T20R was “.050 µg/mL”. For the same substance, the “T20S (antiviral activity, IC50)” value in the test on HIV-1 T20S was “.029 µg/mL”.
With “Conjugate B: two molecules of SEQ ID NO:4 bound via C-terminus to PEG 6”, the “IIIB (antiviral activity, IC50)” value in the test on HIV-1 strain IIIB is “.117 µg/mL”. In addition, the “T20R (antiviral activity, IC50)” value with HIV-1 T20R was “.070 µg/mL”. Besides, the “T20S (antiviral activity, IC50)” value in the test on HIV-1 T20S is “.053 µg/mL”.
For “Conjugate C: two molecules of SEQ ID NO:4 bound via C-terminus to PEG 6”, in that order: “.065 µg/mL”, “.050 µg/mL” and “.046 µg/mL”.
Consider “Conjugate D: two molecules of SEQ ID NO:4 bound via N-terminus to alkyl C5”, for which the “IIIB (antiviral activity, IC50)” value with HIV-1 strain IIIB is “.039 µg/mL”. Also, the “T20R (antiviral activity, IC50)” value in the test on HIV-1 T20R is “.049 µg/mL”. Further, the “T20S (antiviral activity, IC50)” value in the test on HIV-1 T20S was “.036 µg/mL”.
Take “Conjugate E: two molecules of SEQ ID NO:4 bound via N-terminus to PEG 8”: in the test on HIV-1 strain IIIB, the “IIIB (antiviral activity, IC50)” value was “.018 µg/mL”. Besides, in the test on HIV-1 T20R, the “T20R (antiviral activity, IC50)” value was “.020 µg/mL”. Moreover, the “T20S (antiviral activity, IC50)” value in the test with HIV-1 T20S is “.026 µg/mL”.
Regarding “Conjugate F: two molecules of SEQ ID NO:4 bound via N-terminus to alkyl C8”, in the test on HIV-1 strain IIIB, the “IIIB (antiviral activity, IC50)” value was “.089 µg/mL”. The “T20R (antiviral activity, IC50)” value in the test with HIV-1 T20R was “.087 µg/mL”. The “T20S (antiviral activity, IC50)” value in the test on HIV-1 T20S was “.049 µg/mL”.
Take “Conjugate G: two molecules of SEQ ID NO:4 bound via N-terminus to alkyl C11”: the “IIIB (antiviral activity, IC50)” value in the test on HIV-1 strain IIIB was “.174 µg/mL”. For the same substance, the “T20R (antiviral activity, IC50)” value in the test on HIV-1 T20R was “.218 µg/mL”. Also, the “T20S (antiviral activity, IC50)” value in the test with HIV-1 T20S is “.176 µg/mL”.
With “Conjugate H: SEQ ID NO:4 bound via N-terminus to AT, a triacid (e.g., trisuccinimidylamino triacetate)”, in the test on HIV-1 strain IIIB, the “IIIB (antiviral activity, IC50)” value was “.046 µg/mL”. The “T20R (antiviral activity, IC50)” value in the test on HIV-1 T20R was “.124 µg/mL”. In addition, in the test on HIV-1 T20S, the “T20S (antiviral activity, IC50)” value was “.047 µg/mL”.
As for “Conjugate I: two molecules of SEQ ID NO:4 bound via N-terminus to PEG 4-6-4”, the “IIIB (antiviral activity, IC50)” value in the test on HIV-1 strain IIIB was “.029 µg/mL”. Further, in the test with HIV-1 T20R, the “T20R (antiviral activity, IC50)” value was “.029 µg/mL”. The “T20S (antiviral activity, IC50)” value in the test on HIV-1 T20S was “.012 µg/mL”.
Turning to “Conjugate J: two molecules of SEQ ID NO:4 bound via N-terminus to PEG 3”, the “IIIB (antiviral activity, IC50)” value in the test with HIV-1 strain IIIB was “.036 µg/mL”. In the test with HIV-1 T20R, the “T20R (antiviral activity, IC50)” value is “.049 µg/mL”. For the same substance, in the test with HIV-1 T20S, the “T20S (antiviral activity, IC50)” value was “.028 µg/mL”.
In the case of “Conjugate K: two molecules of SEQ ID NO:4 bound via N-terminus to PEG 4”, in the test with HIV-1 strain IIIB, the “IIIB (antiviral activity, IC50)” value was “.033 µg/mL”. The “T20R (antiviral activity, IC50)” value with HIV-1 T20R is “.067 µg/mL”. In the test on HIV-1 T20S, the “T20S (antiviral activity, IC50)” value is “.026 µg/mL”.
In the case of “Conjugate L: two molecules of SEQ ID NO:4 bound via C-terminus to GLY-PEG 3 (glycine linker)”, the “T20S (antiviral activity, IC50)” value with HIV-1 T20S is “.061 µg/mL”.
Same read-out and setting: next, “Conjugate M: two molecules of SEQ ID NO:4 bound via C-terminus to GLY-C2 (glycine linker)”: “.085 µg/mL”; “Conjugate O: two molecules of SEQ ID NO:4 bound via C-terminus to GLY-C6 (glycine linker)”: “.083 µg/mL”.
As to “Conjugate P: two molecules of SEQ ID NO:4 bound via C-terminus to GLY-PEG 6 (glycine linker)”, the “T20S (antiviral activity, IC50)” value with HIV-1 T20S was “.031 µg/mL”.
